The results in this text go back to patent publication US9919998B2, “Antibacterial agents: Nα-aroyl-N-aryl-phenylalaninamides” (priority 2014, dated 2018).

Holding throughout (format): cell-based
For data set [1], the system named is Mycobacterium avium ATCC 25291. The data set can be described thus: Microplate Alamar Blue assay (MABA) MIC, M. avium. The conditions noted are these: ATCC25291, M. avium ATCC 25291. From the text: (§1) Minimal inhibitory concentrations (MICs) in Mycobacterium tuberculosis H37Rv and Mycobacterium avium ATCC 25291 were quantified using microplate Alamar Blue assays as described (MABA; [Collins, L. & Franzblau, S. (1997) Microplate Alamar Blue assay versus BACTEC 460 system for high-throughput screening of compounds against Mycobacterium tuberculosis and Mycobacterium avium. Antimicrob. Agents Chemother. 41, 1004-1009]).
In general terms: Alamar Blue is a resazurin reagent that responds to reducing activity.

In data set [2] the test system is Mycobacterium smegmatis ATCC 19420. The data set can be described thus: Broth microdilution MIC, M. smegmatis. The note with it: Mycolicibacterium smegmatis, ATCC19420, M. smegmatis ATCC 19420; read-out: MIC Mycobacterium smegmatis ATCC 19420. An excerpt: MICs in Mycobacterium smegmatis ATCC 19420 and Mycobacterium smegmatis ATCC 19420 derivatives were quantified using broth microdilution assays as described [Clinical and Laboratory Standards Institute (CLSI/NCCLS) (2009) Methods for Dilution Antimicrobial Susceptibility Tests for Bacteria That Grow Aerobically; Approved Standard, Eighth Edition. CLIS Document M07-A8 (CLIS, Wayne Pa.)].

Data set [3] has as its system Vero E6 ATCC CRL1586 cells. The data set can be described thus: Mammalian-cell cytotoxicity, minimal cytotoxic concentration (CellTiter96). The protocol: Minimal cytotoxic concentrations (MCCs) against mammalian cells in culture were determined using Vero E6 ATCC CRL1586 cells and the CellTiter96 assay kit (Promega, Inc.). […]
Data set [4] has as its system Mycobacterium tuberculosis H37Rv. The data set can be described thus: Microplate Alamar Blue assay (MABA) MIC, M. tuberculosis. The note with it: read-out: MIC Mycobacterium tuberculosis H37Rv.
Description: as §1

Molecules are shown by their SMILES. Values after ≈ are worked out from the molar mass of the structure shown. Bounds are passed on as bounds.

The MIC is the lowest concentration found to suppress growth. For `O=C(NC(Cc1ccccc1)C(=O)Nc1cccc2cc[nH]c12)c1cccs1` (stereo not drawn) [IX-41, N-(1-((1H-indol-7-yl)amino)-1-oxo-3-phenylpropan-2-yl)thiophene-2-carboxamide], the MIC was determined as 12.5 µg/mL (≈ 32.1 µM) in data set [1], 0.39 µg/mL (≈ 1 µM) in data set [2] and 12.5 µg/mL (≈ 32.1 µM) in data set [4]. Besides, the “MCC mammalian cells Vero E6 ATCC CRL1586” value in data set [3] is 48 µg/mL.
With `COc1ccccc1NC(=O)C(Cc1ccccc1)NC(=O)c1cccc2[nH]ccc12` (stereo not drawn) [IX-43, N-(1-((2-methoxyphenyl)amino)-1-oxo-3-phenylpropan-2-yl)-1H-indole-4-carboxamide], the MIC in data set [1] is 12.5 µg/mL (≈ 30.2 µM); in data set [2], 0.39 µg/mL (≈ 0.943 µM); in data set [4], 6.25 µg/mL (≈ 15.1 µM). Besides, the “MCC mammalian cells Vero E6 ATCC CRL1586” value in data set [3] worked out at 59 µg/mL.
The matching figures for `O=C(NC(Cc1ccccc1)C(=O)Nc1cccc2cnccc12)c1cccc2[nH]ccc12` (stereo not drawn) [IX-44, N-(1-(isoquinolin-5-ylamino)-1-oxo-3-phenylpropan-2-yl)-1H-indole-4-carboxamide]: 3.12 µg/mL (≈ 7.19 µM), 0.195 µg/mL (≈ 0.449 µM), 1.56 µg/mL (≈ 3.59 µM) and 70 µg/mL.
The matching figures for `O=C(NC(Cc1ccccc1)C(=O)Nc1cccc2c1OCCO2)c1cccc2[nH]ccc12` (stereo not drawn) [IX-45, N-(1-((2,3-dihydrobenzo[b][1,4]dioxin-5-yl)amino)-1-oxo-3-phenyl-propan-2-yl)-1H-indole-4-carboxamide]: 6.25 µg/mL (≈ 14.2 µM), 0.39 µg/mL (≈ 0.883 µM), 3.12 µg/mL (≈ 7.08 µM) and 71 µg/mL.
On the same counts, the results for `Cc1ccc(Cl)cc1NC(=O)C(Cc1ccc(O)cc1)NC(=O)c1ccccc1` (stereo not drawn) [IX-51, N-(1-((5-chloro-2-methylphenyl)amino)-3-(4-hydroxyphenyl)-1-oxopropan-2-yl)benzamide] are 6.25 µg/mL (≈ 15.3 µM), 0.78 µg/mL (≈ 1.91 µM), 3.12 µg/mL (≈ 7.64 µM) and 60 µg/mL.
For `Cc1ccc(Cl)cc1NC(=O)C(Cc1ccccc1)NC(=O)c1cccc2[nH]ccc12` (stereo not drawn) [IX-53, N-(1-((5-chloro-2-methylphenyl)amino)-1-oxo-3-phenylpropan-2-yl)-1H-indole-4-carboxamide], the MIC in data set [1] came out at 3.12 µg/mL (≈ 7.24 µM); in data set [2], 0.39 µg/mL (≈ 0.903 µM); in data set [4] it was 3.12 µg/mL (≈ 7.24 µM). For the same compound, the “MCC mammalian cells Vero E6 ATCC CRL1586” value in data set [3] stood at 34 µg/mL.
For the compound `Cc1ccccc1NC(=O)C(Cc1ccc(O)cc1)NC(=O)c1ccccc1F` (stereo not drawn) [IX-54, 2-fluoro-N-(3-(4-hydroxyphenyl)-1-oxo-1-(o-tolylamino)propan-2-yl)benzamide], the MIC stood at 50 µg/mL (≈ 127 µM) in data set [1], 1.56 µg/mL (≈ 3.98 µM) in data set [2] and 25 µg/mL (≈ 63.7 µM) in data set [4]. In data set [3], the “MCC mammalian cells Vero E6 ATCC CRL1586” value was more than 100 µg/mL.
On the same counts, the results for `COc1ccccc1NC(=O)C(Cc1ccccc1)NC(=O)c1ccccc1F` (stereo not drawn) [IX-56, 2-fluoro-N-(1-((2-methoxyphenyl)amino)-1-oxo-3-phenylpropan-2-yl)benzamide] are 6.25 µg/mL (≈ 15.9 µM), 0.39 µg/mL (≈ 0.994 µM), 3.12 µg/mL (≈ 7.96 µM) and 97 µg/mL.
`O=C(NC(Cc1ccccc1)C(=O)Nc1cccc2cnccc12)c1ccccc1F` (stereo not drawn) [IX-57, 2-fluoro-N-(1-(isoquinolin-5-ylamino)-1-oxo-3-phenylpropan-2-yl)benzamide]: the figures for the MIC in data set [1], in data set [2] and in data set [4] were 12.5 µg/mL (≈ 30.2 µM), 0.39 µg/mL (≈ 0.943 µM) and 6.25 µg/mL (≈ 15.1 µM), respectively. Also, the “MCC mammalian cells Vero E6 ATCC CRL1586” value in data set [3] worked out at 79 µg/mL.
Take `O=C(NC(Cc1ccccc1)C(=O)Nc1cccc2c1OCCO2)c1ccccc1F` (stereo not drawn) [IX-59, N-(1-((2,3-dihydrobenzo[b][1,4]dioxin-5-yl)amino)-1-oxo-3-phenylpropan-2-yl)-2-fluorobenzamide]: the MIC stood at 6.25 µg/mL (≈ 14.9 µM) in data set [1], 0.095 µg/mL (≈ 0.226 µM) in data set [2] and 3.12 µg/mL (≈ 7.43 µM) in data set [4]. Moreover, in data set [3], the “MCC mammalian cells Vero E6 ATCC CRL1586” value stood at 49 µg/mL.
The matching figures for `Cc1ccccc1NC(=O)C(Cc1ccc(O)cc1)NC(=O)c1ccccc1Cl` (stereo not drawn) [IX-60, 2-chloro-N-(3-(4-hydroxyphenyl)-1-oxo-1-(o-tolylamino)propan-2-yl)benzamide]: more than 50 µg/mL, 3.12 µg/mL (≈ 7.64 µM), 50 µg/mL (≈ 122 µM) and more than 100 µg/mL.
On the same counts, the results for `Cc1ccc(Cl)cc1NC(=O)C(Cc1ccccc1)NC(=O)c1ccccc1Cl` (stereo not drawn) [IX-61, 2-chloro-N-(1-((5-chloro-2-methylphenyl)amino)-1-oxo-3-phenylpropan-2-yl)benzamide] are more than 50 µg/mL, 0.39 µg/mL (≈ 0.913 µM), more than 50 µg/mL and 9.2 µg/mL.
On the same counts, the results for `COc1ccccc1NC(=O)C(Cc1ccccc1)NC(=O)c1ccccc1Cl` (stereo not drawn) [IX-62, 2-chloro-N-(1-((2-methoxyphenyl)amino)-1-oxo-3-phenylpropan-2-yl)benzamide] are 6.25 µg/mL (≈ 15.3 µM), 0.39 µg/mL (≈ 0.954 µM), 6.25 µg/mL (≈ 15.3 µM) and 12 µg/mL.
`O=C(NC(Cc1ccccc1)C(=O)Nc1cccc2cnccc12)c1ccccc1Cl` (stereo not drawn) [IX-63, 2-chloro-N-(1-(isoquinolin-5-ylamino)-1-oxo-3-phenylpropan-2-yl)benzamide]: the MIC in data set [1] amounted to 12.5 µg/mL (≈ 29.1 µM); in data set [2], 0.78 µg/mL (≈ 1.81 µM); in data set [4] it was 6.25 µg/mL (≈ 14.5 µM). For the same compound, in data set [3], the “MCC mammalian cells Vero E6 ATCC CRL1586” value is more than 100 µg/mL.
On the same counts, the results for `O=C(NC(Cc1ccccc1)C(=O)Nc1cccc2ncccc12)c1ccccc1Cl` (stereo not drawn) [IX-64, 2-chloro-N-(1-oxo-3-phenyl-1-(quinolin-5-ylamino)propan-2-yl)benzamide] are 50 µg/mL (≈ 116 µM), 0.78 µg/mL (≈ 1.81 µM), 12.5 µg/mL (≈ 29.1 µM) and 78 µg/mL.
The matching figures for `O=C(NC(Cc1ccccc1)C(=O)Nc1cccc2c1OCCO2)c1ccccc1Cl` (stereo not drawn) [IX-65, 2-chloro-N-(1-((2,3-dihydrobenzo[b][1,4]dioxin-5-yl)amino)-1-oxo-3-phenylpropan-2-yl)benzamide]: 6.25 µg/mL (≈ 14.3 µM), 0.78 µg/mL (≈ 1.79 µM), 3.12 µg/mL (≈ 7.15 µM) and 18 µg/mL.
Consider `Cc1ccc(Cl)cc1NC(=O)C(Cc1ccccc1)NC(=O)c1ccccc1C` (stereo not drawn) [IX-67, N-(1-((5-chloro-2-methylphenyl)amino)-1-oxo-3-phenylpropan-2-yl)-2-methylbenzamide], for which the MIC in data set [1] amounted to 1.56 µg/mL (≈ 3.83 µM); in data set [2], 0.19 µg/mL (≈ 0.467 µM); in data set [4], 1.56 µg/mL (≈ 3.83 µM). Moreover, the “MCC mammalian cells Vero E6 ATCC CRL1586” value in data set [3] is 8 µg/mL.
Consider `COc1ccccc1NC(=O)C(Cc1ccccc1)NC(=O)c1ccccc1C` (stereo not drawn) [IX-68, N-(1-((2-methoxyphenyl)amino)-1-oxo-3-phenylpropan-2-yl)-2-methylbenzamide], for which the minimum inhibitory concentration (MIC) in data set [1] turned out to be 6.25 µg/mL (≈ 16.1 µM); in data set [2], 0.39 µg/mL (≈ 1 µM); in data set [4], 3.12 µg/mL (≈ 8.04 µM). The “MCC mammalian cells Vero E6 ATCC CRL1586” value in data set [3] came out at 17 µg/mL.
As to `Cc1ccccc1C(=O)NC(Cc1ccccc1)C(=O)Nc1cccc2cnccc12` (stereo not drawn) [IX-69, N-(1-(isoquinolin-5-ylamino)-1-oxo-3-phenylpropan-2-yl)-2-methylbenzamide], the figures for the MIC in data set [1], in data set [2] and in data set [4] were 3.12 µg/mL (≈ 7.63 µM), 0.39 µg/mL (≈ 0.952 µM) and 3.12 µg/mL (≈ 7.63 µM), respectively. For the same compound, the “MCC mammalian cells Vero E6 ATCC CRL1586” value in data set [3] was more than 100 µg/mL.
Turning to `Cc1ccccc1C(=O)NC(Cc1ccccc1)C(=O)Nc1cccc2ncccc12` (stereo not drawn) [IX-70, 2-methyl-N-(1-oxo-3-phenyl-1-(quinolin-5-ylamino)propan-2-yl)benzamide], the MIC stood at 25 µg/mL (≈ 61.1 µM) in data set [1], 0.39 µg/mL (≈ 0.952 µM) in data set [2] and 12.5 µg/mL (≈ 30.5 µM) in data set [4]. The “MCC mammalian cells Vero E6 ATCC CRL1586” value in data set [3] was 63 µg/mL.
The matching figures for `Cc1ccccc1C(=O)NC(Cc1ccccc1)C(=O)Nc1cccc2c1OCCO2` (stereo not drawn) [IX-71, N-(1-((2,3-dihydrobenzo[b][1,4]dioxin-5-yl)amino)-1-oxo-3-phenylpropan-2-yl)-2-methylbenzamide]: 3.12 µg/mL (≈ 7.5 µM), 0.39 µg/mL (≈ 0.936 µM), 1.56 µg/mL (≈ 3.75 µM) and 10 µg/mL.
The matching figures for `O=C(NC(Cc1ccccc1)C(=O)Nc1cccc2c1OCO2)c1ccccc1` (stereo not drawn) [IX-72, N-(1-(benzo[d][1,3]dioxol-4-ylamino)-1-oxo-3-phenylpropan-2-yl)benzamide]: 3.12 µg/mL (≈ 8.05 µM), 0.095 µg/mL (≈ 0.245 µM), 6.25 µg/mL (≈ 16.1 µM) and 33 µg/mL.
Turning to `O=C(NC(Cc1ccccc1)C(=O)Nc1cc(F)cc2ncccc12)c1ccccc1` (stereo not drawn) [IX-75, N-(1-((7-fluoroquinolin-5-yl)amino)-1-oxo-3-phenylpropan-2-yl)benzamide], the MIC in data set [1] was 0.78 µg/mL (≈ 1.89 µM); in data set [2] it was 0.39 µg/mL (≈ 0.943 µM); in data set [4] it was 0.78 µg/mL (≈ 1.89 µM). Also, the “MCC mammalian cells Vero E6 ATCC CRL1586” value in data set [3] was more than 100 µg/mL.
On to `Cc1ccc(F)cc1NC(=O)C(Cc1ccccc1)NC(=O)c1cccs1` (stereo not drawn) [IX-79, N-(1-((5-fluoro-2-methylphenyl)amino)-1-oxo-3-phenylpropan-2-yl)thiophene-2-carboxamide], for which the values for the MIC in data set [1], in data set [2] and in data set [4] were 1.56 µg/mL (≈ 4.08 µM), 0.19 µg/mL (≈ 0.497 µM) and 1.56 µg/mL (≈ 4.08 µM), respectively. Moreover, the “MCC mammalian cells Vero E6 ATCC CRL1586” value in data set [3] is 23 µg/mL.
